The subject of the assay is T cell clone Z4B27. As to the kind of experiment: Antigen presentation assay: IFN-γ release by T cell clone Z4B27. The class given is cell-based. Particulars: CD1+ APC preincubated 2 h with sonicated antigen 1-10 μg/mL, 36 h, ELISA; FIG. 1; compared with unsulfated compound f and saturated comparative compound. The protocol: The release of IFN-γ produced by T cell clone Z4B27 prepared in accordance with the method disclosed in WO 2004/092192 in response to stimulation by the compounds of the invention was measured.
CD1+APC were preincubated at 5×10^4 cells/well for 2 h at 37° C. with sonicated antigen (1-10 μg/mL) before addition of T cells (5×10^4/well in triplicate). After 36 h released TNF-α and IFN-γ were measured using sandwich ELISA kits (Instrumentation Laboratory). Data are expressed as mean ng/mL or pg/mL±SD of triplicates. All experiments were repeated at least 2 times.

With `CCCCCCCCCCCCCCCCC(C)CC(C)CC(C)C=C(C)C(=O)OC1C(O)C(CO)OC(OC2OC(CO)C(O)C(O)C2OS(=O)(=O)O)C1OC(=O)CCCCCCCCCCCCCCC` [compound e, 2′-O-Sulfate-2-O-hexadecanoyl-3-O-[(4S,6S,8S)-2,4,6,8-tetramethyltetracos-2-enoyl]-α,α′-D-trehalose], the “IFN-γ produced by T cell clone Z4B27 in response to stimulation” value is given as “better activity”.
